Assays:
[1] = Inhibitory activity against viral attachment
[2] = Effective concentration of the compound against viral replication by Reverse transcriptase

Row | SMILES | IC50 [1] | EC50 [2]
1 | O=C(NNC(=O)c1ccccc1S)c1ccccc1S [2-Mercapto-benzoic acid N'-(2-mercapto-benzoyl)-hydrazide] | > 100 µM | 4.3 µM
2 | O=C1NNC(=O)c2ccccc2SSc2ccccc2C(=O)NNC(=O)c2ccccc2SSc2ccccc21 [11,12,13,14,25,26,27,28-octahydrotetrabenzo[c,i,m,s][1,2,11,12,6,7,16,17]tetrathiatetraazacycloicosine-11,14,25,28-tetraone] |  | 6 µM
3 | O=C(NNC(=O)c1ccccc1SSc1ccccc1C(=O)NNC(=O)c1ccccc1S)c1ccccc1S [Compound 3] | > 100 µM | 17.8 µM
